Measured values from ChEMBL document CHEMBL4382229, “Benzofuran derivatives and their anti-tubercular, anti-bacterial activities” (Eur J Med Chem, 2019).
≈ marks a conversion by molar mass, not a printed value.

Experiments:
Type in all cases: functional
[1] = tested on: Mycobacterium tuberculosis; test: Antitubercular activity against Mycobacterium tuberculosis H37Rv infected in BALB/c mouse assessed as reduction in bacterial load in lungs at 10 mg/kg, po administered once daily via gavage for 5 consecutive days per week for 2 weeks
[2] = tested on: Mycobacterium tuberculosis; test: Antitubercular activity against Mycobacterium tuberculosis Erdman infected in BALB/c mouse assessed as reduction in bacterial load in lungs at 25 mg/kg, po administered once daily via gavage starting from 27 days post infection for 5 consecutive days per week for 4 weeks
[3] = tested on: Mycobacterium tuberculosis; test: Antitubercular activity against Mycobacterium tuberculosis Erdman infected in BALB/c mouse assessed as reduction in bacterial load in spleen at 25 mg/kg, po administered once daily via gavage starting from 27 days post infection for 5 consecutive days per week for 4 weeks
Staphylococcus aureus [4] = test: Antibacterial activity against Staphylococcus aureus assessed as diameter of inhibition zone at 250 ug/ml after 24 hrs by disc diffusion method; details: read-out: DIZ
Escherichia coli [5] = test: Antibacterial activity against Escherichia coli assessed as diameter of inhibition zone at 250 ug/ml after 24 hrs by disc diffusion method; details: read-out: DIZ
Bacillus subtilis [6] = test: Antibacterial activity against Bacillus subtilis NCIM 2439 assessed as zone of inhibition at 1 ug/ml after 24 hrs by agar diffusion method; details: NCIM 2439, 24 h, read-out: IZ
Staphylococcus aureus [7] = test: Antibacterial activity against Staphylococcus aureus NCIM 2079 assessed as zone of inhibition at 1 ug/ml after 24 hrs by agar diffusion method; details: NCIM 2079, 24 h, read-out: IZ
Escherichia coli [8] = test: Antibacterial activity against Escherichia coli NCIM 2064 assessed as zone of inhibition at 1 ug/ml after 24 hrs by agar diffusion method; details: NCIM 2064, 24 h, read-out: IZ
Pseudomonas aeruginosa [9] = test: Antibacterial activity against Pseudomonas aeruginosa NCIB 8650 assessed as zone of inhibition at 1 ug/ml after 24 hrs by agar diffusion method; details: NCIB 8650, 24 h, read-out: IZ
Escherichia coli [10] = test: Antibacterial activity against Escherichia coli ATCC 25922 assessed as diameter of inhibition zone at 5 ug/ml after 24 hrs by agar disc diffusion method; details: ATCC 25922, 24 h, read-out: IZ
Pseudomonas aeruginosa [11] = test: Antibacterial activity against Pseudomonas aeruginosa ATCC 27953 assessed as diameter of inhibition zone at 5 ug/ml after 24 hrs by agar disc diffusion method; details: ATCC 27953, 24 h, read-out: IZ
Bacillus subtilis [12] = test: Antibacterial activity against Bacillus subtilis MTCC 1134 after 24 hrs by broth dilution method; details: MTCC 1134, 24 h
Escherichia coli [13] = test: Antibacterial activity against Escherichia coli MTCC 1559 after 24 hrs by broth dilution method; details: MTCC 1559, 24 h
Pseudomonas aeruginosa [14] = test: Antibacterial activity against Pseudomonas aeruginosa MTCC 1034 after 24 hrs by broth dilution method; details: MTCC 1034, 24 h
Bacillus subtilis [15] = test: Potency index, ratio of streptomycin MIC to test compound MIC for Bacillus subtilis MTCC 1134
Escherichia coli [16] = test: Potency index, ratio of streptomycin MIC to test compound MIC for Escherichia coli MTCC 1559
Pseudomonas aeruginosa [17] = test: Potency index, ratio of streptomycin MIC to test compound MIC for Pseudomonas aeruginosa MTCC 1034
Staphylococcus aureus [18] = test: Antibacterial activity against Staphylococcus aureus by broth dilution method
Bacillus subtilis [19] = test: Antibacterial activity against Bacillus subtilis by broth dilution method
Escherichia coli [20] = test: Antibacterial activity against Escherichia coli by broth dilution method
Pseudomonas aeruginosa [21] = test: Antibacterial activity against Pseudomonas aeruginosa by broth dilution method
Staphylococcus aureus [22] = test: Potency index, ratio of ciprofloxacin MIC to test compound MIC for Staphylococcus aureus
Bacillus subtilis [23] = test: Potency index, ratio of ciprofloxacin MIC to test compound MIC for Bacillus subtilis
Escherichia coli [24] = test: Potency index, ratio of ciprofloxacin MIC to test compound MIC for Escherichia coli

SMILES: NNC(=O)c1ccncc1 [ISONIAZID]
- Activity [1]: 6.7 log10CFU
- Activity [2]: 1.1 log10CFU
- Activity [3]: 2.5 log10CFU

SMILES: O=C(N[C@H](CO)[C@H](O)c1ccc([N+](=O)[O-])cc1)C(Cl)Cl [CHLORAMPHENICOL]
- zone of inhibition at 250 µg/mL (Staphylococcus aureus [4]): 27 mm
- zone of inhibition at 250 µg/mL (Escherichia coli [5]): 17 mm
- zone of inhibition at 1 µg/mL (Bacillus subtilis [6]): 21 to 32 mm
- zone of inhibition at 1 µg/mL (Staphylococcus aureus [7]): 21 to 32 mm
- zone of inhibition at 1 µg/mL (Escherichia coli [8]): 21 to 32 mm
- zone of inhibition at 1 µg/mL (Pseudomonas aeruginosa [9]): 21 to 32 mm
- zone of inhibition at 5 µg/mL (Escherichia coli [10]): 21 to 32 mm
- zone of inhibition at 5 µg/mL (Pseudomonas aeruginosa [11]): 21 to 32 mm

SMILES: Cc1ccc(-c2cc(-c3cc4ccccc4o3)nc(N)n2)s1
- MIC (Bacillus subtilis [12]): 4.32 to 6.32 µg/mL (≈ 14.1 to 20.6 µM)
- MIC (Escherichia coli [13]): 4.32 to 6.32 µg/mL (≈ 14.1 to 20.6 µM)
- MIC (Pseudomonas aeruginosa [14]): 4.32 to 6.32 µg/mL (≈ 14.1 to 20.6 µM)
- Ratio (Bacillus subtilis [15]): >3
- Ratio (Escherichia coli [16]): >3
- Ratio (Pseudomonas aeruginosa [17]): >3

SMILES: Cc1ccc2occ(-c3cc4ccccc4oc3=O)c2c1
- MIC (Staphylococcus aureus [18]): 0.2 µg/mL (≈ 0.724 µM)
- MIC (Bacillus subtilis [19]): 0.4 µg/mL (≈ 1.45 µM)
- MIC (Escherichia coli [20]): 0.2 µg/mL (≈ 0.724 µM)
- MIC (Pseudomonas aeruginosa [21]): 6.25 to 100 µg/mL (≈ 22.6 to 362 µM)
- Ratio (Staphylococcus aureus [22]): >=5
- Ratio (Bacillus subtilis [23]): >=5
- Ratio (Escherichia coli [24]): >=5
